Results on one compound are retold here after patent US5110798A, “Purine derivatives having pharmacological action” (Co Pharma Corporation S.r.l., priority 1987, dated 1992).

The test system of the assay is neurokinin receptors such as NK-P, NK-A and NK-B. As to conditions: several in vitro models.

Turning to `CSCC[C@H](NC(=O)[C@H](CC(C)C)NC(=O)CNC(=O)OCCCCCn1cnc2c(=O)[nH]cnc21)C(=O)O` [Example 3], the neurokinin-like activity entry is “showed neurokinin-like activity”.
